# What was measured:
# Type in all cases: functional
# Sporothrix schenckii [1] = assay: Antifungal activity against Sporothrix schenckii P24255 isolate from cutaneous-lymphatic sporotrichosis patient after 72 hrs by ATB Fungus 2 method
# Sporothrix schenckii [2] = assay: Antifungal activity against Sporothrix schenckii P24223 isolate from cutaneous-lymphatic sporotrichosis patient after 72 hrs by Sensititre YeastOne method
# Sporothrix schenckii [3] = assay: Antifungal activity against Sporothrix schenckii PGAC0016 isolate from cutaneous-lymphatic sporotrichosis patient after 72 hrs by Sensititre YeastOne method
# Pichia kudriavzevii [4] = assay: Antifungal activity against Candida krusei ATCC 6258 […] after 72 hrs by modified NCCLS M38-A method; settings: ATCC 6258, 72 h
# Sporothrix schenckii [5] = assay: Antifungal activity against Sporothrix schenckii SSA29 isolate from cutaneous-lymphatic sporotrichosis patient after 72 hrs by ATB Fungus 2 method
# Sporothrix schenckii [6] = assay: Antifungal activity against Sporothrix schenckii P3287 isolate from cutaneous-lymphatic sporotrichosis patient after 72 hrs by ATB Fungus 2 method
# Sporothrix schenckii [7] = assay: Antifungal activity against Sporothrix schenckii P10012 isolate from cutaneous-lymphatic sporotrichosis patient after 72 hrs by Sensititre YeastOne method
# Sporothrix schenckii [8] = assay: Antifungal activity against Sporothrix schenckii P0019 isolate from cutaneous-lymphatic sporotrichosis patient after 72 hrs by Sensititre YeastOne method
# Sporothrix schenckii [9] = assay: Antifungal activity against Sporothrix schenckii isolate from cutaneous-lymphatic sporotrichosis patient after 72 hrs by ATB Fungus 2 method
# Sporothrix schenckii [10] = assay: Antifungal activity against Sporothrix schenckii P26187 isolate from cutaneous-lymphatic sporotrichosis patient after 72 hrs by ATB Fungus 2 method
# Sporothrix schenckii [11] = assay: Antifungal activity against Sporothrix schenckii MRSS4 isolate from cutaneous-lymphatic sporotrichosis patient after 72 hrs by ATB Fungus 2 method
# Sporothrix schenckii [12] = assay: Antifungal activity against Sporothrix schenckii PJRC002 isolate from cutaneous-lymphatic sporotrichosis patient after 72 hrs by Sensititre YeastOne method
# Sporothrix schenckii [13] = assay: Antifungal activity against Sporothrix schenckii P3287 isolate from cutaneous-lymphatic sporotrichosis patient after 72 hrs by Sensititre YeastOne method
# Sporothrix schenckii [14] = assay: Antifungal activity against Sporothrix schenckii PSCC1 isolate from cutaneous-lymphatic sporotrichosis patient after 72 hrs by Sensititre YeastOne method
# Sporothrix schenckii [15] = assay: Antifungal activity against Sporothrix schenckii P24255 isolate from cutaneous-lymphatic sporotrichosis patient after 72 hrs by Sensititre YeastOne method
# Sporothrix schenckii [16] = assay: Antifungal activity against Sporothrix schenckii P10012 isolate from cutaneous-lymphatic sporotrichosis patient after 72 hrs by ATB Fungus 2 method
# Sporothrix schenckii [17] = assay: Antifungal activity against Sporothrix schenckii PGAC0016 isolate from cutaneous-lymphatic sporotrichosis patient after 72 hrs by ATB Fungus 2 method
# Sporothrix schenckii [18] = assay: Antifungal activity against Sporothrix schenckii P30915 isolate from cutaneous-lymphatic sporotrichosis patient after 72 hrs by ATB Fungus 2 method
# Sporothrix schenckii [19] = assay: Antifungal activity against Sporothrix schenckii PSSA81 isolate from cutaneous-lymphatic sporotrichosis patient after 72 hrs by Sensititre YeastOne method
# Sporothrix schenckii [20] = assay: Antifungal activity against Sporothrix schenckii P20825 isolate from cutaneous-lymphatic sporotrichosis patient after 72 hrs by Sensititre YeastOne method
# Candida parapsilosis [21] = assay: Antifungal activity against Candida parapsilosis ATCC 22019 […] after 72 hrs by modified NCCLS M38-A method; settings: Lodderomyces parapsilosis, ATCC 22019, 72 h
# Sporothrix schenckii [22] = assay: Antifungal activity against Sporothrix schenckii P14036 isolate from cutaneous-lymphatic sporotrichosis patient after 72 hrs by ATB Fungus 2 method
# Pichia kudriavzevii [23] = assay: Antifungal activity against Candida krusei ATCC 6258 […] after 72 hrs by ATB Fungus 2 method; settings: ATCC 6258, 72 h
# Sporothrix schenckii [24] = assay: Antifungal activity against Sporothrix schenckii PJRC002 isolate from cutaneous-lymphatic sporotrichosis patient after 72 hrs by ATB Fungus 2 method
# Candida parapsilosis [25] = assay: Antifungal activity against Candida parapsilosis ATCC 22019 […] after 72 hrs by Sensititre YeastOne method; settings: Lodderomyces parapsilosis, ATCC 22019, 72 h
# Sporothrix schenckii [26] = assay: Antifungal activity against Sporothrix schenckii P24223 isolate from cutaneous-lymphatic sporotrichosis patient after 72 hrs by ATB Fungus 2 method
# Sporothrix schenckii [27] = assay: Antifungal activity against Sporothrix schenckii P25013 isolate from cutaneous-lymphatic sporotrichosis patient after 72 hrs by Sensititre YeastOne method
# Sporothrix schenckii [28] = assay: Antifungal activity against Sporothrix schenckii PSCC1 isolate from cutaneous-lymphatic sporotrichosis patient after 72 hrs by ATB Fungus 2 method
# Sporothrix schenckii [29] = assay: Antifungal activity against Sporothrix schenckii P26187 isolate from cutaneous-lymphatic sporotrichosis patient after 72 hrs by Sensititre YeastOne method
# Sporothrix schenckii [30] = assay: Antifungal activity against Sporothrix schenckii SSA29 isolate from cutaneous-lymphatic sporotrichosis patient after 72 hrs by Sensititre YeastOne method
# Sporothrix schenckii [31] = assay: Antifungal activity against Sporothrix schenckii P14954 isolate from cutaneous-lymphatic sporotrichosis patient after 72 hrs by ATB Fungus 2 method
# Sporothrix schenckii [32] = assay: Antifungal activity against Sporothrix schenckii isolate from cutaneous-lymphatic sporotrichosis patient after 72 hrs by modified NCCLS M38-A method
# Sporothrix schenckii [33] = assay: Antifungal activity against Sporothrix schenckii P1621 isolate from cutaneous-lymphatic sporotrichosis patient after 72 hrs by ATB Fungus 2 method
# Sporothrix schenckii [34] = assay: Antifungal activity against Sporothrix schenckii P14036 isolate from cutaneous-lymphatic sporotrichosis patient after 72 hrs by Sensititre YeastOne method
# Sporothrix schenckii [35] = assay: Antifungal activity against Sporothrix schenckii P20825 isolate from cutaneous-lymphatic sporotrichosis patient after 72 hrs by ATB Fungus 2 method
# Sporothrix schenckii [36] = assay: Antifungal activity against Sporothrix schenckii P14954 isolate from cutaneous-lymphatic sporotrichosis patient after 72 hrs by Sensititre YeastOne method
# Sporothrix schenckii [37] = assay: Antifungal activity against Sporothrix schenckii MRSS4 isolate from cutaneous-lymphatic sporotrichosis patient after 72 hrs by Sensititre YeastOne method
# Sporothrix schenckii [38] = assay: Antifungal activity against Sporothrix schenckii P30019 isolate from cutaneous-lymphatic sporotrichosis patient after 72 hrs by Sensititre YeastOne method
# Sporothrix schenckii [39] = assay: Antifungal activity against Sporothrix schenckii P30019 isolate from cutaneous-lymphatic sporotrichosis patient after 72 hrs by ATB Fungus 2 method
# Candida parapsilosis [40] = assay: Antifungal activity against Candida parapsilosis ATCC 22019 […] after 72 hrs by ATB Fungus 2 method; settings: Lodderomyces parapsilosis, ATCC 22019, 72 h
# Sporothrix schenckii [41] = assay: Antifungal activity against Sporothrix schenckii isolate from cutaneous-lymphatic sporotrichosis patient after 72 hrs by Sensititre YeastOne method
# Sporothrix schenckii [42] = assay: Antifungal activity against Sporothrix schenckii P25013 isolate from cutaneous-lymphatic sporotrichosis patient after 72 hrs by ATB Fungus 2 method
# Pichia kudriavzevii [43] = assay: Antifungal activity against Candida krusei ATCC 6258 […] after 72 hrs by Sensititre YeastOne method; settings: ATCC 6258, 72 h
# Sporothrix schenckii [44] = assay: Antifungal activity against Sporothrix schenckii P30019 isolate from cutaneous-lymphatic sporotrichosis patient after 72 hrs by modified NCCLS M38-A method
# Sporothrix schenckii [45] = assay: Antifungal activity against Sporothrix schenckii P30915 isolate from cutaneous-lymphatic sporotrichosis patient after 72 hrs by Sensititre YeastOne method
# Sporothrix schenckii [46] = assay: Antifungal activity against Sporothrix schenckii P1621 isolate from cutaneous-lymphatic sporotrichosis patient after 72 hrs by Sensititre YeastOne method
# Sporothrix schenckii [47] = assay: Antifungal activity against Sporothrix schenckii P0019 isolate from cutaneous-lymphatic sporotrichosis patient after 72 hrs by ATB Fungus 2 method
smiles,measurement,setting,value
Nc1nc(=O)[nH]cc1F [FLUCYTOSINE],MIC,Sporothrix schenckii [1],64 µg/mL
same,MIC,Sporothrix schenckii [2],16 µg/mL
same,MIC,Sporothrix schenckii [3],16 µg/mL
same,MIC,Pichia kudriavzevii [4],16 µg/mL
same,MIC,Sporothrix schenckii [5],32 µg/mL
same,MIC,Sporothrix schenckii [6],> 64 µg/mL
same,MIC,Sporothrix schenckii [7],8 µg/mL
same,MIC,Sporothrix schenckii [8],16 µg/mL
same,MIC50,Sporothrix schenckii [9],64 µg/mL
same,MIC90,Sporothrix schenckii [9],> 64 µg/mL
same,MIC,Sporothrix schenckii [10],64 µg/mL
same,MIC,Sporothrix schenckii [11],> 64 µg/mL
same,MIC,Sporothrix schenckii [12],8 µg/mL
same,MIC,Sporothrix schenckii [13],16 µg/mL
same,MIC,Sporothrix schenckii [14],> 64 µg/mL
same,MIC,Sporothrix schenckii [15],16 µg/mL
same,MIC,Sporothrix schenckii [16],64 µg/mL
same,MIC,Sporothrix schenckii [17],> 64 µg/mL
same,MIC,Sporothrix schenckii [18],> 64 µg/mL
same,MIC,Sporothrix schenckii [19],1 µg/mL
same,MIC,Sporothrix schenckii [20],8 µg/mL
same,MIC,Candida parapsilosis [21],0.5 µg/mL
same,MIC,Sporothrix schenckii [22],64 µg/mL
same,MIC,Pichia kudriavzevii [23],32 µg/mL
same,MIC,Sporothrix schenckii [24],64 µg/mL
same,MIC,Candida parapsilosis [25],1 µg/mL
same,MIC,Sporothrix schenckii [26],> 64 µg/mL
same,MIC,Sporothrix schenckii [27],32 µg/mL
same,MIC,Sporothrix schenckii [28],> 64 µg/mL
same,MIC,Sporothrix schenckii [29],8 µg/mL
same,MIC,Sporothrix schenckii [30],16 µg/mL
same,MIC,Sporothrix schenckii [31],> 64 µg/mL
same,MIC50,Sporothrix schenckii [32],> 64 µg/mL
same,MIC,Sporothrix schenckii [33],8 µg/mL
same,MIC,Sporothrix schenckii [34],32 µg/mL
same,MIC,Sporothrix schenckii [35],32 µg/mL
same,MIC,Sporothrix schenckii [36],32 µg/mL
same,MIC,Sporothrix schenckii [37],16 µg/mL
same,MIC,Sporothrix schenckii [38],1 µg/mL
same,MIC,Sporothrix schenckii [39],64 µg/mL
same,MIC,Candida parapsilosis [40],1 µg/mL
same,MIC50,Sporothrix schenckii [41],16 µg/mL
same,MIC90,Sporothrix schenckii [41],32 µg/mL
same,MIC,Sporothrix schenckii [42],64 µg/mL
same,MIC,Pichia kudriavzevii [43],32 µg/mL
same,MIC,Sporothrix schenckii [44],4 µg/mL
same,MIC,Sporothrix schenckii [45],16 µg/mL
same,MIC,Sporothrix schenckii [46],8 µg/mL
same,MIC,Sporothrix schenckii [47],> 64 µg/mL

# Source: ChEMBL document CHEMBL1150788, “In vitro susceptibility of Sporothrix schenckii to six antifungal agents determined using three different methods” (2007)
